From article PMC7069976, “Improved secretion of glycoproteins using an N-glycan-restricted passport sequence tag recognized by cargo receptor” (Nature Communications, 2020)

Legend:
Format in all cases: cell-based
HCT116 cells = assay: Intracellular accumulation, western blotting of cell lysates; details: anti-flag western blot, vs EPO-motif
Description: Western blots were performed according to methods in previous studies[29],[30]. At 72 h post transfection, the EPO and sFγRIII recombinant proteins were purified with anti-Flag M2 Affinity Gel (Sigma-Aldrich). The gel was washed twice with phosphate-buffered saline, and proteins were eluted with the 3× FLAG tag peptide (Sigma-Aldrich). The purified proteins were subjected to 3–10% gradient sodium dodecyl sulfate-polyacrylamide gel electrophoresis and subsequently transferred to a polyvinylidene difluoride membrane (Millipore, Billerica, MA). After blocking with Blocking One solution (Nacalai Tesque, Kyoto, Japan), the membranes were incubated with monoclonal mouse anti-Flag M2 (Sigma-Aldrich, F1804), anti-human LMAN1 (ERGIC-53) (Proteintech, Tokyo, Japan, 13364), anti-human SDNSF/MCFD2 (R&D System, Minneapolis, MN, MAB2357), and anti-β-actin (Sigma-Aldrich, A2228) antibodies, and then with horseradish peroxidase (HRP)-conjugated secondary antibody [anti-mouse IgG antibody-HRP, GE Healthcare (Piscataway, NJ) and anti-rabbit Ig antibody-HRP, Cell Signaling Technology (Danvers, MA)] in 20 mM Tris-HCl (pH 7.6) containing 150 mM NaCl and 0.05% Tween-20. The protein bands were visualized with Immobilon Western Chemiluminescent HRP substrate solution (Millipore).

ΔMCFD2 HCT116 cells = assay: EPO secretion level (ELISA) from MCFD2 KO HCT116 cells
Description: (§1) The guide RNAs (gRNAs) flanking the target enhancer regions for ERGIC-53 and MCFD2 were designed using ToolGen’s dRGEN synthesis service (Seoul, South Korea). The target DNA sequences of the gRNAs used in the present study were as follows: for MCFD2 deletion, […], and for ERGIC-53 deletion, […]. The gRNA expression plasmids (pRGEN-U6-sgRNA) were purchased from ToolGen. To generate the KO cells of MCFD2 or ERGIC-53, individual gRNA plasmids and a plasmid-expressing Cas9-green fluorescent protein (GFP) (Addgene, catalog #44719) were transiently transfected into HCT116 cells, which are diploid cells suitable for genome editing using the CRISPR/Cas9 method, in a six-well plate using polyethylenimine “Max” (Polysciences Inc., Warrington, PA) and a Cas9:gRNA molar ratio of 1:5 as described previously. At 48 h post transfection, cells with high GFP expression were identified using fluorescence-activated cell sorting with the BD FACSAria II cell sorter (BD Biosciences, San Jose, CA). For knocking out ERGL in the wild-type and ERGIC-53-KO cells, the Guide-it CRISPR/Cas9 System (green/red) (Takara Bio Inc., Kusatsu, Japan) was used for the cloning and expression of target single gRNAs, whose target ERGL DNA sequences were […] and […]. The two constructed pGuide-it Vectors (green and red) were transiently transfected into HCT116 cells. At 48 h post transfection, cells with high ZsGreen1 and tdTomato expression were identified using fluorescence-activated cell sorting. Sorted cells were plated into individual wells of a 96-well plate and then re-plated as single cells in 6 cm dishes. The deletions in the clones were confirmed by polymerase chain reaction and sequencing analysis (Supplementary Figs. 8, 9, 10, and 11).
(§2) For expression of the FVIII and FV full-length and deletion mutant proteins in mammalian cells, the codon-optimized FVIII and FV genes were inserted into the p3XFLAG-CMV-14 Expression Vector and p3XFLAG-CMV-9 Expression Vector, respectively (Sigma-Aldrich, St. Louis, MO). For the expression of the wild-type and mutated AAT, EPO, and sFγRIIIa in mammalian cells, the corresponding genes (purchased from FASMAC Co., Ltd., Atsuki, Japan) were inserted into the p3XFLAG-CMV-9 Expression Vector (Sigma-Aldrich). […]
(§3) The secreted levels of FVIII and FV antigens in the culture medium were determined with an sandwich enzyme-linked immunosorbent assay (ELISA) method using the VisuLize FVIII Antigen Kit (Affinity Biologicals Inc., Ancaster, ON) and the Asssay Max™ Human Factor V ELISA Kit (ASSAYPRO, MO), respectively. The secreted levels of AAT and EPO antigens in the culture medium were determined with an ELASA method using the anti-AAT antibody (Agilent, Santa Clara, CA) and anti-Flag M2 antibody (Sigma-Aldrich), respectively.

HCT116 cells (WT) = assay: EPO secretion level (ELISA) from wild-type HCT116 cells; details: for EPO secretion level (Figure 4F): HCT116, alanine substitutions in motif
Description: For expression of the FVIII and FV full-length and deletion mutant proteins in mammalian cells, the codon-optimized FVIII and FV genes were inserted into the p3XFLAG-CMV-14 Expression Vector and p3XFLAG-CMV-9 Expression Vector, respectively (Sigma-Aldrich, St. Louis, MO). For the expression of the wild-type and mutated AAT, EPO, and sFγRIIIa in mammalian cells, the corresponding genes (purchased from FASMAC Co., Ltd., Atsuki, Japan) were inserted into the p3XFLAG-CMV-9 Expression Vector (Sigma-Aldrich).
HCT116 and its mutated cells as well as HEK293T were maintained in Dulbecco’s modified Eagle’s medium (DMEM) supplemented with 10% fetal bovine serum in 5% CO2 at 37 °C. For complementary DNA (cDNA) transfection, cells were grown overnight and transfected using Polyethylenimine “Max” (Polysciences Inc.) as described previously. Expi293F cells (Thermo Fisher Scientific, Waltham, MA) were maintained in Expi293 Expression Medium (Thermo Fisher Scientific) in 5% CO2 at 37 °C on an orbital shaker platform rotating at 125 r.p.m. For cDNA transfection, cells were transfected with the ExpiFectamine 293 Transfection Kit (Thermo Fisher Scientific Inc.). Protein expression was performed in serum-free medium.
as §3

ERGL KO HCT116 cells = assay: EPO secretion level (ELISA) from ERGL KO HCT116 cells
Description: as §1, §2, §3

ΔERGIC-53 HCT116 cells = assay: EPO secretion level (ELISA) from ERGIC-53 KO HCT116 cells
Description: as §1, §2, §3

[1] = average, n = 3, EPO in wild type = 1

## EPO: recombinant Flag-tagged erythropoietin without motif (Fig. 5 prints EPO for mScarlet-I-EPO)
HCT116 cells
  intracellular accumulation: a higher level of accumulation in the cells
ΔMCFD2 HCT116 cells; [1]
  EPO secretion level (Figure 4D), average: 0.9208
ΔMCFD2 HCT116 cells; replicate 1
  EPO secretion level (Figure 4D): 0.5997
ΔMCFD2 HCT116 cells; replicate 2
  EPO secretion level (Figure 4D): 1.0013
ΔMCFD2 HCT116 cells; replicate 3
  EPO secretion level (Figure 4D): 1.162
HCT116 cells (WT); HCT116, N-glycan-deficient mutants, Average, EPO = 1
  EPO secretion level (Figure 4E), average: 1
HCT116 cells (WT); HCT116, N-glycan-deficient mutants, replicate 1
  EPO secretion level (Figure 4E): 1.0366
HCT116 cells (WT); HCT116, N-glycan-deficient mutants, replicate 2
  EPO secretion level (Figure 4E): 1.006
HCT116 cells (WT); HCT116, N-glycan-deficient mutants, replicate 3
  EPO secretion level (Figure 4E): 0.9333
HCT116 cells (WT); HCT116, N-glycan-deficient mutants, replicate 4
  EPO secretion level (Figure 4E): 1.024
HCT116 cells (WT); HCT116, alanine substitutions in C-terminal motif, Average, n = 3, EPO = 1
  EPO secretion level (Figure 4F), average: 1
HCT116 cells (WT); replicate 1
  EPO secretion level (Figure 4F): 1.027
HCT116 cells (WT); replicate 2
  EPO secretion level (Figure 4F): 1.0473
HCT116 cells (WT); replicate 3
  EPO secretion level (Figure 4F): 0.9257
HCT116 cells (WT); HCT116, motif position series, average, n = 3 independent transfections, Flag-EPO average = 1
  EPO secretion level (Figure 4C), average: 1
HCT116 cells (WT); HCT116, motif position series, replicate 1
  EPO secretion level (Figure 4C): 1.0819
HCT116 cells (WT); HCT116, motif position series, replicate 2
  EPO secretion level (Figure 4C): 0.9754
HCT116 cells (WT); HCT116, motif position series, replicate 3
  EPO secretion level (Figure 4C): 0.9427
HCT116 cells (WT); Wild type HCT116, KO series, average, n = 3, EPO in wild type = 1
  EPO secretion level (Figure 4D), average: 1
HCT116 cells (WT); Wild type HCT116, KO series, replicate 1
  EPO secretion level (Figure 4D): 0.9075
HCT116 cells (WT); Wild type HCT116, KO series, replicate 2
  EPO secretion level (Figure 4D): 1.011
HCT116 cells (WT); Wild type HCT116, KO series, replicate 3
  EPO secretion level (Figure 4D): 1.081
ERGL KO HCT116 cells; [1]
  EPO secretion level (Figure 4D), average: 0.7808
ERGL KO HCT116 cells; replicate 1
  EPO secretion level (Figure 4D): 0.6104
ERGL KO HCT116 cells; replicate 2
  EPO secretion level (Figure 4D): 0.9026
ERGL KO HCT116 cells; replicate 3
  EPO secretion level (Figure 4D): 0.8293
ΔERGIC-53 HCT116 cells; [1]
  EPO secretion level (Figure 4D), average: 1.297
ΔERGIC-53 HCT116 cells; replicate 1
  EPO secretion level (Figure 4D): 1.122
ΔERGIC-53 HCT116 cells; replicate 2
  EPO secretion level (Figure 4D): 1.395
ΔERGIC-53 HCT116 cells; replicate 3
  EPO secretion level (Figure 4D): 1.373
